According to ChEMBL document CHEMBL5108075, “Sialidase Inhibitors with Different Mechanisms” (J Med Chem, 2022):

Experiment: Inhibition of Trypanosoma cruzi trans-sialidase

IC50: 600 µM
SMILES: CC(=O)N[C@H]1[C@H]([C@H](O)[C@H](O)CO)OC(Oc2ccc([N+](=O)[O-])cc2C(F)F)(C(=O)O)C[C@H]1O (stereo partly specified)
